# Data: patent US9814704B2, “Substituted pyrrolo[2,3-b]pyridines as MLK inhibitors” (The University of Rochester, priority 2008, dated 2017)
# Where a name gives a salt, the structure may show the parent alone.
# Target: MLK3 (Homo sapiens (Human), UniProt Q16584)
# Assay: Radiometric Filter Plate MLK3 Assay
# Type: biochemical
# Settings: 200 ng (130 nM) MLK3, 1 μM inactive MKK7b, 2 μM cold ATP (Km), 33P ATP, twenty minute incubation; read-out: MK3 IC50
# Method: Radiometric Filter Plate MLK3 Assay
# After a twenty minute incubation, the reactions were washed through filter plates and read on a scintillation counter. Results are shown in Table 4 below, in which +++ indicates ≦0.1 μM, ++ indicates >0.1 μM and ≦1 μM, and + indicates >1 μM.
# MLK3, sequence (Q16584 whole entry): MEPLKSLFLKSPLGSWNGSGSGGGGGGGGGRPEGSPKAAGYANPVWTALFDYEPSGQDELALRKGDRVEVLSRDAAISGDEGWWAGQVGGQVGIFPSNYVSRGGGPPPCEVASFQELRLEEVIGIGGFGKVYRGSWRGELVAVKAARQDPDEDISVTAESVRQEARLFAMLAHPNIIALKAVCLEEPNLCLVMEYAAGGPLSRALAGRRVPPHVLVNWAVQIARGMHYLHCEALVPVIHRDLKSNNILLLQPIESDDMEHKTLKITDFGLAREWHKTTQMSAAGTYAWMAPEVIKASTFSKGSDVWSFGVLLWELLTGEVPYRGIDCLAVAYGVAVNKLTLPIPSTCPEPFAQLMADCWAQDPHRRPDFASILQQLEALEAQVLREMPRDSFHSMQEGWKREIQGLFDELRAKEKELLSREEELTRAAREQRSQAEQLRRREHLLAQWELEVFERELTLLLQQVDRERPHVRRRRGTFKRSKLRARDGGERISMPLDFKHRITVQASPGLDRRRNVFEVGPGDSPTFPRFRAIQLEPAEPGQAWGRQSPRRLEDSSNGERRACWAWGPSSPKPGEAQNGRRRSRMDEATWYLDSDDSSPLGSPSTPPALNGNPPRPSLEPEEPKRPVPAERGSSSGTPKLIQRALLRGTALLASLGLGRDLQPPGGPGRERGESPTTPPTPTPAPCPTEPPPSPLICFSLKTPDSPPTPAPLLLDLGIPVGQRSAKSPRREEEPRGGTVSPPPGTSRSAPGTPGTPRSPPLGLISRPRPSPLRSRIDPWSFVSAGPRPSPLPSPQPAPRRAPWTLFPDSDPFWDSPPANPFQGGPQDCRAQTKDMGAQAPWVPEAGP
row,SMILES,IC50 [nM]
1,"COc1cc(-c2cnc3c(c2)C(Cc2ccc(C(N)=O)cc2)C(=O)N3)cc(OC)c1OC (centres unmarked) [Example 138, 4-[2-oxo-5-(3,4,5-trimethoxy-phenyl)-2,3-dihydro-1H-pyrrolo[2,3-b]pyridin-3-ylmethyl]-benzamide]",> 1000
2,"CN1CCN(Cc2ccc(-c3cnc4[nH]cc(-c5ccc6[nH]ccc6c5)c4c3)cc2)CC1=O [Example 141, 4-{4-[3-(1H-indol-5-yl)-1H-pyrrolo[2,3-b]pyridin-5-yl]-benzyl}-1-methyl-piperazin-2-one]",< 100
3,"O=C1CN(Cc2ccc(-c3cnc4[nH]cc(-c5ccc6[nH]ccc6c5)c4c3)cc2)CCN1 [Example 142, 4-{4-[3-(1H-indol-5-yl)-1H-pyrrolo[2,3-b]pyridin-5-yl]-benzyl}-piperazin-2-one]",< 100
4,"CN1CCN(Cc2cccc(-c3cnc4[nH]cc(-c5ccc6[nH]ccc6c5)c4c3)c2)CC1=O [Example 143, 4-{3-[3-(1H-indol-5-yl)-1H-pyrrolo[2,3-b]pyridin-5-yl]-benzyl}-1-methyl-piperazin-2-one]",< 100
5,"CC(C)(C)OC(=O)N1CCN(Cc2ccc(-c3cnc4[nH]cc(-c5ccc6[nH]ccc6c5)c4c3)cc2)CC1 [Example 144, 4-{4-[3-(1H-indol-5-yl)-1H-pyrrolo[2,3-b]pyridin-5-yl]-benzyl}-piperazine-1-carboxylic acid tert-butyl ester]",< 100
6,"CC(=O)N1CCN(C(=O)c2ccc(-c3cnc4[nH]cc(-c5ccc6[nH]ccc6c5)c4c3)cc2)CC1 [Example 146, 1-(4-{4-[3-(1H-indol-5-yl)-1H-pyrrolo[2,3-b]pyridin-5-yl]-benzoyl}-piperazin-1-yl)-ethanone]",< 100
7,"CN1CCN(C(=O)c2cccc(-c3cnc4[nH]cc(-c5ccc6[nH]ccc6c5)c4c3)c2)CC1 [Example 147, {3-[3-(1H-indol-5-yl)-1H-pyrrolo[2,3-b]pyridin-5-yl]-phenyl}-(4-methyl-piperazin-1-yl)-methanone]",< 100
8,"CC(C)(C)OC(=O)N1CCN(C(=O)c2ccc(-c3cnc4[nH]cc(-c5ccc(C(N)=O)cc5)c4c3)cc2)CC1 [Example 148, 4-{4-[3-(4-carbamoyl-phenyl)-1H-pyrrolo[2,3-b]pyridin-5-yl]-benzoyl}-piperazine-1-carboxylic acid tert-butyl ester]",< 100
9,"NC(=O)c1ccc(-c2c[nH]c3ncc(-c4ccc(C(=O)N5CCNCC5)cc4)cc23)cc1 [Example 149, 4-{5-[4-(piperazine-1-carbonyl)-phenyl]-1H-pyrrolo[2,3-b]pyridin-3-yl}-benzamide, hydrochloride salt]",< 100
10,"CC(C)(C)OC(=O)N1CCN(C(=O)c2cccc(-c3cnc4[nH]cc(-c5ccc(C(N)=O)cc5)c4c3)c2)CC1 [Example 151, 4-{3-[3-(4-carbamoyl-phenyl)-1H-pyrrolo[2,3-b]pyridin-5-yl]-benzoyl}-piperazine-1-carboxylic acid tert-butyl ester]",< 100
11,"CN1CCN(Cc2cccc(-c3cnc4[nH]cc(-c5ccc(C(N)=O)cc5)c4c3)c2)CC1 [Example 156, 4-{5-[3-(4-methyl-piperazin-1-ylmethyl)-phenyl]-1H-pyrrolo[2,3-b]pyridin-3-yl}-benzamide]",< 100
12,"CC(=O)N1CCN(Cc2ccc(-c3cnc4[nH]cc(-c5ccc(C(N)=O)cc5)c4c3)cc2)CC1 [Example 157, 4-{5-[4-(4-acetyl-piperazin-1-ylmethyl)-phenyl]-1H-pyrrolo[2,3-b]pyridin-3-yl}-benzamide]",< 100
13,"CN1CCN(Cc2ccc(-c3cnc4[nH]cc(-c5ccc(C(N)=O)cc5)c4c3)cc2)CC1=O [Example 158, 4-{5-[4-(4-methyl-3-oxo-piperazin-1-ylmethyl)-phenyl]-1H-pyrrolo[2,3-b]pyridin-3-yl}-benzamide]",< 100
14,"COc1cc(-c2cnc3[nH]cc(-c4ccc(CNC(C)=O)cc4)c3c2)cc(OC)c1OC [Example 159, N-{4-[5-(3,4,5-Trimethoxy-phenyl)-1H-pyrrolo[2,3-b]pyridin-3-yl]-benzyl}-acetamide]",< 100
15,"CN1CCN(Cc2ccc(-c3c[nH]c4ncc(-c5ccc(C(N)=O)cc5)cc34)cc2)CC1 [Example 162, 4-{3-[4-(4-methyl-piperazin-1-ylmethyl)-phenyl]-1H-pyrrolo[2,3-b]pyridin-5-yl}-benzamide]",< 100
16,"CN1CCN(Cc2ccc(-c3c[nH]c4ncc(-c5ccc6[nH]ccc6c5)cc34)cc2)CC1 [Example 163, 5-(1H-indol-5-yl)-3-[4-(4-methyl-piperazin-1-ylmethyl)-phenyl]-1H-pyrrolo[2,3-b]pyridine]",> 1000
17,"CNC(=O)c1ccc(-c2c[nH]c3ncc(-c4cc(OC)c(OC)c(OC)c4)cc23)cc1 [Example 164, N-methyl-4-[5-(3,4,5-trimethoxy-phenyl)-1H-pyrrolo[2,3-b]pyridin-3-yl]-benzamide]",> 1000
18,"CNC(=O)c1ccc(-c2c[nH]c3ncc(-c4ccc(CN5CCN(C)CC5)cc4)cc23)cc1 [Example 165, N-methyl-4-{5-[4-(4-methyl-piperazin-1-ylmethyl)-phenyl]-1H-pyrrolo[2,3-b]pyridin-3-yl}-benzamide]",< 100

# Same assay, conditions: read-out: MK3 IC50
row,SMILES,IC50 [nM]
1,"COc1cc(-c2cnc3c(c2)C(Cc2ccccc2)(Cc2ccccc2)C(=O)N3)cc(OC)c1OC [Example 139, 3,3-dibenzyl-5-(3,4,5-trimethoxy-phenyl)-1,3-dihydro-pyrrolo[2,3-b]pyridin-2-one]",100 to 1000
2,"CC(=O)N1CCN(Cc2ccc(-c3cnc4[nH]cc(-c5ccc6[nH]ccc6c5)c4c3)cc2)CC1 [Example 140, 1-(4-{4-[3-(1H-indol-5-yl)-1H-pyrrolo[2,3-b]pyridin-5-yl]-benzyl}-piperazin-1-yl)-ethanone]",> 1000
3,"CC(=O)N1CCN(C(=O)c2ccc(-c3cnc4[nH]cc(-c5ccc(C(N)=O)cc5)c4c3)cc2)CC1 [Example 150, 4-{5-[4-(4-acetyl-piperazine-1-carbonyl)-phenyl]-1H-pyrrolo[2,3-b]pyridin-3-yl}-benzamide]",100 to 1000
4,"NC(=O)c1ccc(-c2c[nH]c3ncc(-c4cccc(C(=O)N5CCNCC5)c4)cc23)cc1 [Example 152, 4-{5-[3-(piperazine-1-carbonyl)-phenyl]-1H-pyrrolo[2,3-b]pyridin-3-yl}-benzamide, hydrochloride salt]",100 to 1000
5,"CC(=O)N1CCN(C(=O)c2cccc(-c3cnc4[nH]cc(-c5ccc(C(N)=O)cc5)c4c3)c2)CC1 [Example 153, 4-{5-[3-(4-acetyl-piperazine-1-carbonyl)-phenyl]-1H-pyrrolo[2,3-b]pyridin-3-yl}-benzamide]",100 to 1000
6,"CN1CCN(Cc2ccc(-c3cnc4[nH]cc(-c5ccc(C(N)=O)cc5)c4c3)cc2)CC1 [Example 155, 4-{5-[4-(4-methyl-piperazin-1-ylmethyl)-phenyl]-1H-pyrrolo[2,3-b]pyridin-3-yl}-benzamide]",100 to 1000
7,"COc1cc(-c2cnc3[nH]cc(-c4ccc(CNC(=O)Cc5ccccc5)cc4)c3c2)cc(OC)c1OC [Example 160, 2-phenyl-N-{4-[5-(3,4,5-trimethoxy-phenyl)-1H-pyrrolo[2,3-b]pyridin-3-yl]-benzyl}-acetamide]",100 to 1000
8,"COc1cc(-c2cnc3[nH]cc(-c4ccc(CNC(=O)CCc5ccccc5)cc4)c3c2)cc(OC)c1OC [Example 161, 3-phenyl-N-{4-[5-(3,4,5-trimethoxy-phenyl)-1H-pyrrolo[2,3-b]pyridin-3-yl]-benzyl}-propionamide]",100 to 1000
